Measurements reported in US10617735B2, “Methods and compositions for preserving retinal ganglion cells” (Massachusetts Eye and Ear Infirmary, priority 2010, dated 2020).

What was measured:
Type in all cases: in vivo, mouse
[1] = tested on: retinal ganglion cells (RGCs); test: IPL thickness and GCL with IPL thickness after ON injury (immunohistochemistry, SD-OCT); conditions: seven days after ON injury; intravitreal 3-MA (33.3 mM); effect less than ZVAD plus Nec-1
Method: An anti-TNF-α neutralizing antibody (0.1 mg/ml) or a control antibody was injected into the vitreous of mice that underwent ON injury. One week following injection, the number of RGCs were measured. In addition, inner plexiform layer (IPL) thickness (a location of RGC axons) was also assessed. Specifically, eyes were enucleated and RGC loss was quantified from histological sections of mouse retina. Only transverse sections involving the optic disc were used for analysis and the fields corresponding to approximately 400 μm of both sides of retina extending from the ON head (2 points/section×3 sections per eye, n=6) were examined with an optical microscope (×40 objectives). IPL thickness was measured with OpenLab software (Open Lab, Florence, Italy) (2 points/section×3 sections per eye, n=6). The ratio of IPL thickness was calculated as a percentage of IPL thickness in the normal mouse eyes (n=6).
Inner plexiform layer (IPL) thickness and ganglion cell layer (GCL) with IPL thickness (location of RGC cell bodies and axons) were measured using immunohistochemistry and a Spectral Domain Optical Coherence Tomography (SD-OCT) system (Bioptigen Inc., Durham, N.C.). […] The thickness of GCL+IPL was assessed at 500 μm, 400 μm, 300 μm distance from the ON head (nasally and temporally) as well as at 200 μm, 400 μm above and below the ON head.

[2] = tested on: retinal ganglion cells (RGCs); test: Brn3b immunohistochemistry (viable RGCs) after ON injury; conditions: seven days after ON injury; intravitreal 3-MA (33.3 mM); effect less than ZVAD plus Nec-1
Text: Two mouse models of RGC death were utilized: optic nerve (ON) injury and N-methyl-D-aspartate (NMDA) retinal excitotoxicity. ON injury leads to RGC death as a result of primary damage to the axons, with its ensuing disruption of retrograde axonal transport (Libby et al., (2005) PLOS GENET 1:17-26) and is used as an RGC death model. In the ON injury model, mice were anesthetized and subjected to severe crush injury at 1-2 mm distance from the eyeball for 15 seconds using cross-action forceps taking special care not to interfere with the blood supply (Levkovitch-Verbin, (2004) EYE 18:1066-1074). Injured mice were randomly divided into 4 groups for treatment: vehicle group (0.5% DMSO and 0.8% cyclodextrin in PBS, n=6), ZVAD group (300 n=6), Nec-1 group (4 mM, n=6), and ZVAD plus Nec-1 group (n=6). Soon after injury, each group received an intravitreal injection (2 μl) with the respective compounds. In the NMDA retinal excitotoxicity model, NMDA (2 μl of a 0.1M stock; Sigma-Aldrich) was injected intravitreously in combination with ZVAD, Nec-1, or ZVAD plus Nec-1 and mice were separated into the aforementioned 4 groups. […]

[3] = tested on: retinal ganglion cells (RGCs); test: TUNEL staining after ON injury; conditions: one day after ON injury; intravitreal 3-MA (33.3 mM); compared to non-treated mice
Text: Two mouse models of RGC death were utilized: optic nerve (ON) injury and N-methyl-D-aspartate (NMDA) retinal excitotoxicity. ON injury leads to RGC death as a result of primary damage to the axons, with its ensuing disruption of retrograde axonal transport (Libby et al., (2005) PLOS GENET 1:17-26) and is used as an RGC death model. In the ON injury model, mice were anesthetized and subjected to severe crush injury at 1-2 mm distance from the eyeball for 15 seconds using cross-action forceps taking special care not to interfere with the blood supply (Levkovitch-Verbin, (2004) EYE 18:1066-1074). […] Soon after injury, each group received an intravitreal injection (2 μl) with the respective compounds. In the NMDA retinal excitotoxicity model, NMDA (2 μl of a 0.1M stock; Sigma-Aldrich) was injected intravitreously in combination with ZVAD, Nec-1, or ZVAD plus Nec-1 and mice were separated into the aforementioned 4 groups. The dose of these compounds was selected based on previous studies (Karl et al., (2008) PROC NATL ACAD SCI USA 105:19508-19513; Knoferle et al., (2010) PROC NATL ACAD SCI USA 107:6064-6069; Nakazawa et al., (2006) J NEUROSCI 26:12633-12641; Rosenbaum et al., (2010) J NEUROSCI RES 88:1569-1576).
Intravitreal injections were performed as follows. Briefly, the tip of a 33 gauge needle (Hamilton, Reno, Nev.) was carefully inserted through the sclera into the intravitreal space to reduce intraocular pressure. Then, the needle was extracted, loaded with compounds and tangentially reinserted through the sclera into the intravitreal space, inducing a self-sealing wound tunnel. After injection, the absence of choroidal bleeding was confirmed. At specified times after injury, mice were sacrificed with an overdose of sodium pentobarbital, and eyes were enucleated.

ROS = test: Protein carbonyl contents in retina after ON injury (ELISA); conditions: one day after ON injury; intravitreal 3-MA; compared with untreated control
Method: It has been reported that RIP kinases control ROS generation during programmed necrosis (Cho et. al., (2009) CELL 137:1112-1123, Zhang et al., (2009) SCIENCE 325:332-336)). To investigate whether ROS play a roll in oxidative retinal damage after ON injury, protein level of carbonyl contents was analyzed using ELISA using the OxiSelect™ Protein Carbonyl ELISA Kit (Cell Biolabs, San Diego, Calif.).
To investigate the role of autophagy in RGC death after ON injury, we examined the effect of 3-methyladenine (3-MA) on RGCs death after ON injury. 3-MA inhibits autophagosome formation (Seglen and Gordon, (1982) PROC NATL ACAD SCI USA 79:1889-1892)). One day after ON injury, TUNEL assay was performed. […] In addition, the number of Brn3b positive cells and IPL thickness were also analyzed. […] To investigate whether ROS play a role in oxidative retinal damage after ON injury, protein level of carbonyl contents was analyzed using an ELISA kit (Cell Biolabs, San Diego, Calif.) according to the manufacturer's instructions. One day after ON injury, carbonyl contents decreased in the 3-MA treated group compared with untreated control (FIG. 10F).

SMILES: Cn1cnc(N)c2ncnc1-2 [3-MA, 3-methyladenine]
- reduction of IPL thickness ratio [1]: significantly prevented the reduction
- reduction of Brn3b positive cells [2]: significantly prevented the reduction
- number of TUNEL positive cells [3]: small but statistically significant decline
- carbonyl contents (protein level, ELISA) (ROS): decreased
